According to article PMC9412875, “^64Cu-DOTHA2-PSMA, a Novel PSMA PET Radiotracer for Prostate Cancer with a Long Imaging Time Window” (Pharmaceuticals, 2022):

Assay: Plasma stability (ex vivo) and protein binding in mouse serum/plasma
Type: in vitro ADME
Settings: for 64Cu released from Proteins / 64Cu-DOTHA2-PSMA Released from Proteins: after 10% TFA; for proportion of free 64Cu: excess natCu-DOTHA2-PSMA
Protocol: Plasma stability studies were carried out by incubating ^64Cu-DOTHA2-PSMA (50 MBq in 250 μL PBS buffer) in 250 μL of mouse serum at 37 °C for up to 24 h. The plasma was then mixed twice with ethanol (1:1) to precipitate all the proteins. The samples were subjected to vortex mixing for 1 min and then centrifugation for 10 min at 7000 rpm. Plasma proteins were separated from the soluble component by ultracentrifugation and the radioactivity was assessed. The supernatant fraction was assayed by radio-TLC on C18 plates and by UPLC; free ^64Cu(OAc)2 and ^64Cu-DOTHA2-PSMA were used as standards. The radio-TLCs were eluted with 0.1 M sodium citrate buffer at pH 5.5 using an Instant Imager system (BioScan, DC, U.S.A.) for radiodetection. The precipitated proteins were again subjected to 10% TFA, vortexed for 2–3 min, and then centrifuged for 10 min at 7000 rpm. The separation and analysis for the supernatant and the proteins were performed in the same manner.
The protein binding ability was evaluated by incubating ^64Cu-DOTHA2-PSMA (100 MBq) in phosphate buffer (250 μL, pH 7) at 37 °C and fresh mouse serum (250 μL) and for 1 h, 4 h, and 24 h. Plasma proteins were precipitated by the addition of ethanol (1:1, v/v) to the plasma samples, followed by centrifugation at 7000 rpm for 5 min at room temperature and separation of the supernatant. This process was repeated three times with the same volume of ethanol, and the supernatants were pooled. The radioactivity content of the supernatant and the precipitated protein were measured in a dose calibrator to obtain the protein binding percentage.

[1] = ex vivo, mouse plasma, 100 equiv. natCu-DOTHA2-PSMA, 1 h
[2] = ex vivo, mouse plasma, 100 equiv. natCu-DOTHA2-PSMA, 4 h
[3] = ex vivo, mouse plasma, 100 equiv. natCu-DOTHA2-PSMA, 24 h

CN([O-])C(=O)CN1CCN(CC(=O)NCC2CCC(C(=O)NC(Cc3ccc4ccccc4c3)C(=O)NCCCCC(NC(=O)NC(CCC(=O)O)C(=O)O)C(=O)O)CC2)CCN(CC(=O)N(C)[O-])CCN(CC(=O)N(C)O)CC1.[64Cu+2] (stereo not drawn) [^64Cu-DOTHA2-PSMA]
demetallation or degradation in mouse serum (radio-UPLC, radio-TLC) (37 °C, up to 24 h): No major demetallation or degradation | change of signal bound to plasma proteins on adding excess natCu-DOTHA2-PSMA (ex vivo, 4 h): 1% | change of signal bound to plasma proteins on adding excess natCu-DOTHA2-PSMA (ex vivo, 24 h): 6% | 64Cu in the Supernatant (ex vivo, mouse plasma 37 °C, 1 h, % of total signal): 0% | 64Cu in the Supernatant (ex vivo, mouse plasma 37 °C, 4 h, % of total signal): 1.98% | 64Cu in the Supernatant (ex vivo, mouse plasma 37 °C, 24 h, % of total signal): 1.28% | 64Cu and 64Cu-DOTHA2-PSMA Bound to Plasma Proteins [1]: 24% | 64Cu in the Supernatant [1]: 0% | 64Cu released from Proteins [1]: 0.82% | 64Cu and 64Cu-DOTHA2-PSMA Bound to Plasma Proteins [2]: 33% | 64Cu in the Supernatant [2]: 3.35% | 64Cu released from Proteins [2]: 0.84% | 64Cu and 64Cu-DOTHA2-PSMA Bound to Plasma Proteins [3]: 30% | 64Cu in the Supernatant [3]: 5.60% | 64Cu released from Proteins [3]: 2.14% | 64Cu and 64Cu-DOTHA2-PSMA Bound to Plasma Proteins (ex vivo, mouse plasma, 1 h): 24% | signal attributed to free 64Cu overall (supernatant and precipitate) (ex vivo, mouse plasma, 1 h): 0.79% | 64Cu-DOTHA2-PSMA Released from Proteins (ex vivo, mouse plasma, 1 h): 15% | 64Cu released from Proteins (ex vivo, mouse plasma, 1 h, % of total signal): 0.79% | 64Cu and 64Cu-DOTHA2-PSMA Bound to Plasma Proteins (ex vivo, mouse plasma, 4 h): 34% | signal attributed to free 64Cu overall (supernatant and precipitate) (ex vivo, mouse plasma, 4 h): 2.62% | 64Cu-DOTHA2-PSMA Released from Proteins (ex vivo, mouse plasma, 4 h): 21% | 64Cu released from Proteins (ex vivo, mouse plasma, 4 h, % of total signal): 0.64% | 64Cu and 64Cu-DOTHA2-PSMA Bound to Plasma Proteins (ex vivo, mouse plasma, 24 h): 36% | free 64Cu, share of the plasma supernatant signal (UPLC) (ex vivo, mouse plasma, 24 h): less than 3% | 64Cu-DOTHA2-PSMA Released from Proteins (ex vivo, mouse plasma, 24 h): 21% | 64Cu released from Proteins (ex vivo, mouse plasma, 24 h, % of total signal): 0.65% | proportion of free 64Cu (ex vivo, mouse plasma, 1 h): 0.82% | proportion of free 64Cu (ex vivo, mouse plasma, 4 h): 4.19% | proportion of free 64Cu (ex vivo, mouse plasma, 24 h): 7.75%
